Read-outs that look alike come from different tables or passages of the source.
Tests used:
[1] = cited from earlier work
[2] = Storage stability (outer appearance change) of ointments containing molecular complex crystals; assay type: physicochemical; conditions: hydrophilic ointment containing 5%, 2 weeks in air at room temperature
Text: Storage Sstability (Outer Appearance Change) of Ointments Prepared by Combining Different Surfactant/Hydroquinone Molecular Complex Crystals with Ointment Bases (Simple Ointment, Hydrophilic Ointment)

back of a person = assay: Visual observation test for skin reaction (patch test); assay type: in vivo, human; conditions: for skin reaction (visual): patch test, kneaded with white vaseline
Protocol: A simple surfactant and surfactant/hydroquinone molecular complex crystals were kneaded with white vaseline, and used for a patch test with a patch tester (Torii Yakuhin) on the back of a person. Skin reactions such as eruption, redness, edema or papules were visually noted 48 hours after applying each patch. Skin reactions were also confirmed after 72 hours. The samples used for the patch test were as follows (where the percentage values indicate the proportions of the surfactant or molecular complex crystals).

| Structure (SMILES) | solubility ([1]; in benzene) | solubility ([1]; in ether) | solubility ([1]; in ethyl acetate) | solubility ([1]; in methanol) | solubility ([1]; in water) | outer appearance (coloration) of hydrophilic ointment [2] | overall evaluation of patch test (back of a person; after 48 hours) | overall evaluation of patch test (back of a person; after 72 hours) | skin reaction (visual) (back of a person; after 48 hours) | skin reaction (visual) (back of a person; after 72 hours) |
| --- | --- | --- | --- | --- | --- | --- | --- | --- | --- | --- |
| Oc1ccc(O)cc1 [simple hydroquinone, 1,4-benzenediol] | poorly soluble | readily soluble | poorly soluble | readily soluble | soluble | Brown spots were confirmed | – | – | – | – |
| CCCCCCCCCCCCCCCC[N+](C)(C)Cc1ccccc1.[Cl-] [No. 7, hexadecyldimethylbenzylammonium chloride] | – | – | – | – | – | – | negative | negative | some redness was found at the center area | Some redness remained in the center area |
